Assay results from patent US11266710B2, “Angio-3 for treatment of retinal angiogenic diseases” (SINGAPORE HEALTH SERVICES PTE LTD, priority 2017, dated 2022).

System: laser-induced CNV in C57/BL6J (B6J) wild type mice
Experiment: Laser-induced choroidal neovascularization (CNV) model in mice, area of leakage by FFA
Assay type: in vivo
Conditions: for Area of Leakage (mean) Week 1 / Area of Leakage (mean) Week 4: laser-induced CNV mice; for % Reduction (area of leakage): vehicle control = 0%
Protocol: FIG. 3A is a schematic of the experimental design on the efficacy of Angio-3 in a laser-induced choroidal neovascularization (CNV) model in mice (B6J WT mice). FIG. 3B are FFA images of baseline and at different time points post treatment. IV single injection of 100 μL of Angio-3 (25 mg/Kg Bwt) was given at Day 0 (prevention mode) and 4 days after laser (regression mode) and followed for 10 weeks. FIG. 3C is a graph showing the area of leakage by each eye for various groups. FIG. 3D are graphs of the mean area of leakage of all batches for each group. […] The attenuation retinal vascularization was better than scrambled peptide. n=6 eyes per batch; n=3 batches. Values are expressed as means±s.e.m., **P<0.01, *P<0.05, student's t-test. FIG. 3E is a graph of the result of the Retinal Function Test that measures ERG changes in Angio-3 treated and control.
FIG. 4A is a schematic of the experimental design on the efficacy of Angio-3 by IVT administration. […]
FIG. 11 A are FFA images of baseline and at different time points post treatment. Mice received single IVT injection of Angio-3 (at a dose of 1 μg in 1 μl or 100 ng in 1 μl), and chemically modified Angio-3 peptides Pep-N (at doses of 5 μg in μl; 1 μg in μl; and 100 ng in 1 μl, respectively) and Pep-Q peptides (at doses of 5 μg in μl; 1 μg in μl; and 100 ng in 1 μl, respectively). FIG. 11 B is a graph of the area of leakage by each eye. Single dose attenuates retinal angiogenesis in laser-induced mice CNV model via IVT route till 4 weeks. […] Eylea is the positive control. n=18 eyes per group; Values are expressed as means±s.e.m. n=3 independent experiment, **P<0.01, *P<0.05, student's t-test.
Laser induced choridal neo-vascularization (CNV) in C57/BL6J (B6J) wild type mice (n=90).
In B6J mice, single injection of 100 μl volume at 25 mg/kg Bwt concentration Angio-3 was injected via intravenous (i/v) route and this was tested in both Preventive mode (before laser) and Regression mode (4 days after laser). […]
Angio-3 was also injected via intravitreal (IVT) route, single injection of 1 μl volume at 2 different doses; 1 μg (High dose) and 100 ng (Low dose).
4 laser photocoagulation sites were placed concentrically around the optic disc of both eyes to induce CNVs. A diode laser (810 nm) was used with a relative potency scale of 120 mW for mice and 250 mW for rats, an exposure time of 0.05 s, and a spot size of […]. Laser spots were focused with crystal covers to avoid laser beam dispersion. Bubble formation was confirmed the rupture of Bruch's membrane.
Fundus photography and fundus fluorescein angiography (FFA) was imaged using a MICRON IV fundus camera (Phoenix Laboratories USA). For FFA, animals were intraperitoneally injected with 10% sodium fluorescein at a dose of 0.01 ml per 5-6 gm body weight.
In B6J mice, single intravitreous (IVT) injection of 100 ng, 1 μg, 5 μg PEP-Q, PEP-N (modified Angio-3), Angio-3 and Eylea were executed and this was tested in Prevention mode (before laser) Method of Llser induced CNV model and injection was described as above.

[1] = 100 ng single IVT, prevention mode
[2] = 1 μg single IVT, prevention mode
[3] = 5 μg single IVT, prevention mode

Substance: Eylea: Eylea (anti-VEGF), positive control; clinical compound [reference compound]
- Area of Leakage (mean) Week 1 [1]: 10273.37
- Area of Leakage (mean) Week 4 [1]: 3433.52
- % Reduction (area of leakage) (100 ng single IVT): 28.40%
- Area of Leakage (mean) Week 1 [2]: 12502.09
- Area of Leakage (mean) Week 4 [2]: 3005.85
- % Reduction (area of leakage) (1 μg single IVT): 37.77%
- Area of Leakage (mean) Week 1 [3]: 11724.39
- Area of Leakage (mean) Week 4 [3]: 1834.08
- % Reduction (area of leakage) (5 μg single IVT): 46.17%
- choroidal angiogenesis (B6J mice, single intravitreal injection at dose 100 ng, 1 g, and 5 μg, prevention mode): superior efficacy that is similar to PEP-Q and PEP-N
